# Experiments:
# ACHN [1] = experiment: Cytotoxicity against TRAIL-resistant human ACHN cells assessed as cell killing after 20 to 24 hrs; type: functional, cell-based
# ACHN [2] = experiment: Ratio of EC50 for TRAIL-resistant human ACHN cells to EC50 for TRAIL-resistant human ACHN cells in presence of TRAIL; type: functional
# ACHN [3] = experiment: Cytotoxicity against TRAIL-resistant human ACHN cells assessed as cell killing after 20 to 24 hrs in presence of TRAIL; type: functional, cell-based
SMILES,EC50 (ACHN [1]),Ratio EC50 (ACHN [2]),EC50 (ACHN [3])
C=C/C(C)=C/C[C@]1(C)[C@H](C)[C@@H](O)[C@@H](OC(=O)/C=C/C=C/CCCCC)[C@@]23C(=C[C@H](O)C[C@@H]12)[C@@H](OC(C)=O)O[C@H]3OC(C)=O [ARGUTIN D],14.3 µM,1.6,8.7 µM
C=C/C(C)=C/C[C@]1(C)[C@H](C)C[C@@H](OC(=O)/C=C/C=C/CCCCC)[C@@]23C(=C[C@H](O)C[C@@H]12)[C@@H](OC(C)=O)O[C@H]3OC(C)=O [ARGUTIN B],13.8 µM,3,4.6 µM
C=CC(=C)[C@@H](C[C@]1(C)[C@H](C)[C@@H](O)[C@@H](O)[C@@]23C(=C[C@H](OC(=O)/C=C\C=C\CCCCC)C[C@@H]12)[C@@H](OC(C)=O)O[C@H]3OC(C)=O)OO [ARGUTIN G],4.2 µM,1.5,2.8 µM
C=CC(=C)[C@@H](C[C@]1(C)[C@H](C)C[C@@H](O)[C@@]23C(=C[C@H](OC(=O)/C=C\C=C\CCCCC)C[C@@H]12)[C@@H](OC(C)=O)O[C@H]3OC(C)=O)OO [ARGUTIN F],10.4 µM,1.5,7.1 µM
C=C/C(C)=C/C[C@]1(C)[C@H](C)[C@@H](O)C[C@@]23C(=C[C@H](OC(=O)/C=C\C=C\CCCCC)C[C@@H]12)[C@@H](OC(C)=O)O[C@H]3OC(C)=O [ARGUTIN E],3.3 µM,1.5,2.2 µM
C=C/C(C)=C/C[C@]1(C)[C@H](C)[C@@H](O)[C@@H](O)[C@@]23C(=C[C@H](OC(=O)/C=C\C=C\CCCCC)C[C@@H]12)[C@@H](OC(C)=O)O[C@H]3OC(C)=O [ARGUTIN C],3.1 µM,1.9,1.6 µM
C=C/C(C)=C/C[C@]1(C)[C@H](C)C[C@@H](O)[C@@]23C(=C[C@H](OC(=O)/C=C\C=C\CCCCC)C[C@@H]12)[C@@H](OC(C)=O)O[C@H]3OC(C)=O [ARGUTIN A],5.4 µM,2.3,2.4 µM
